PubChem BioAssay AID1996
Converted amounts (≈) assume the structure as drawn. Non-standard residues stand in square brackets, D forms with d. Residues, ends and D or L forms follow the SMILES beside them. ξ: configuration not given here. *: point of attachment. Cbz = O=C(OCc1ccccc1)*; ξV = CC(C)C(N)C(=O)O

details: buffer; pH 7.4; 200.0 µM

| Structure (SMILES) | solubility kinetic [µg/mL] |
| --- | --- |
| COc1ccc(C(=O)CSc2nnc3ccccn23)cc1OC | > 49.4 |
| O=C(Cc1ccc(Cl)cc1)N1CCOCC1 | > 36 |
| NC(=O)COC(=O)Cc1coc2cc3c(cc12)CCC3 | 35.6 (≈ 130 µM) |
| CC(C)CNC(=O)CO/N=C/c1ccccc1Cl | > 40.3 |
| c1ccc(CCN2CN=C(Nc3nc4ccccc4s3)NC2)cc1 | < 0.1 |
| CCOCCCNC(=O)c1c[nH]c2c(CC)cccc2c1=O | > 45.4 |
| O=C1CCC([N+](=O)[O-])C(c2cccc3ccccc23)N1 (stereo not given) | > 40.5 |
| CN(CC(=O)Nc1ccccc1C(F)(F)F)C(=O)CSc1nnc(-c2ccncc2)n1C | > 69.7 |
| COC(=O)CNC(=O)C(NC(=O)OCc1ccccc1)C(C)C (stereo not given) (Cbz-[ξV]-Gly-OMe) | > 48.4 |
| CN1CCN(S(=O)(=O)c2cccc(C(=O)Nc3cccc([N+](=O)[O-])c3)c2)CC1 | 59.7 (≈ 148 µM) |
| O=S1(=O)C[C@@H](O)[C@@H](Nc2ccccc2)C1 | > 34.1 |
| COC(=O)CC1C(=O)NCCN1C(=O)c1sc2ccccc2c1Cl (stereo not given) | > 55 |
| O=C(NC1CCCCNC1=O)c1ccccc1 (stereo not given) | > 34.8 |
| Cc1cc(=O)[nH]c(SCC(=O)Nc2nonc2C)n1 | > 42.2 |
| O=CC1=C(N2CCOCC2)/C(=C/c2ccc(Cl)cc2)CC1 | 32.1 (≈ 106 µM) |
| CSc1ccccc1NC(=O)CN(C)CC(=O)c1[nH]c(C)c(C(C)=O)c1C | 6.7 (≈ 17.3 µM) |
| COc1ccc(C(=O)NC(=S)N2CCC(C)CC2)cc1Br | 8 (≈ 21.5 µM) |
| COc1cc2c(cc1OC)C(C)N(C(=O)Nc1cc(C)cc(C)c1)CC2 (stereo not given) | 2.7 (≈ 7.62 µM) |
| CN(CC(=O)Nc1ccccc1C(F)(F)F)C(=O)C1CC1 | > 45 |
| Nc1cc(=O)[nH]c(SCc2cccc3ccccc23)n1 | 4 (≈ 14.1 µM) |
| CCCCn1c(=N)n(CC(O)c2ccccc2)c2ccccc21.Cl (stereo not given) | > 51.9 |
| O=C(NCc1ccccc1)c1cccnc1Sc1ccccc1 | 10.6 (≈ 33.1 µM) |
| COC(=O)C(Cc1ccc(O)cc1)NC(=O)CCc1ccco1 (stereo not given) | 46.5 (≈ 147 µM) |
| Cc1cc(C)c(C#N)c(N2CCN(c3ccccc3F)CC2)n1 | 3.8 (≈ 12.2 µM) |

| Structure (SMILES) | solubility kinetic [µg/mL] |
| --- | --- |
| COc1ccc(C(=O)Nc2ccccc2C(=O)Nc2cccnc2)cc1 | 8.8 (≈ 25.3 µM) |
| CC(=O)c1ccc(-n2ccnc2)cc1 | > 27.9 |
| CCC(=O)N1CCc2cc(S(=O)(=O)Nc3ccccc3C)ccc21 | < 0.4 |
| CCCC(=O)Nc1cc(OC)c(C(=O)OC)cc1Cl | > 42.9 |
| O=C(Cn1cc(C(F)(F)F)ccc1=O)Nc1ccccc1 | 10 (≈ 33.8 µM) |
| O=C(NCCCN1CCOCC1)c1cc(-c2ccco2)nc2ccccc12 | 49.6 (≈ 136 µM) |
| CCOc1cc(C(=S)N2CCCC2)ccc1OC | > 39.8 |
| O=C(Nc1ccc(S(=O)(=O)Nc2nccs2)cc1)C(F)(F)F | > 52.7 |
| COCCNS(=O)(=O)c1cc(OC)ccc1OC | > 41.3 |
| CCOC(=O)c1sc(=S)n(Cc2ccccc2)c1C | 3.4 (≈ 11.6 µM) |
| CC(=O)N1CCN(C(=O)c2cc(C)oc2C)CC1 | > 37.5 |
| CN(CC(=O)Nc1ccc2c(c1)OCO2)CC(=O)Nc1ccc(F)c(F)c1F | > 59.3 |
| O=C(Nc1ccc(Cl)c(S(=O)(=O)N2CCOCC2)c1)c1cc2ccccc2oc1=O | 2.4 (≈ 5.35 µM) |
| CCc1ccc(N/C(=N/c2nc(C)cc(C)n2)NC(C)=O)cc1 | 9.2 (≈ 29.5 µM) |
| CCc1c(C(=O)Nc2ccccc2C(N)=O)csc1C | 3.6 (≈ 12.5 µM) |
| CCC(=O)Nc1c(-c2ccc(C)cc2)nc2ccc(C)cn12 | 30.4 (≈ 104 µM) |
| C#CCOC(=O)C[N+](C)(C)CC#Cc1ccccc1.[Cl-] | 43.1 |
| Cc1cnc(NC(=O)CN2CCCCC2)s1.[O-][Cl+3]([O-])([O-])O | 24.7 |
| O=C(O)c1ccccc1C(=O)Nc1ccc(Oc2ccccc2)cc1 | > 50 |
| Cc1cc(=O)oc(C)c1C(=O)Nc1cccc(F)c1 | > 39.2 |
| O=C(CCSCc1ccccc1F)NCc1cccs1 | > 46.4 |
| O=C(NC1CC2CCCC(C1)N2Cc1ccccc1)C1CCCCC1 (stereo not given) | > 51.1 |
| COc1ccccc1NC(=O)NC1(C)CCS(=O)(=O)C1 (stereo not given) | > 44.8 |
| Cc1ccc(CNC(=O)c2c(-c3ccccc3Cl)noc2C)cc1 | 42.6 (≈ 125 µM) |

| Structure (SMILES) | solubility kinetic [µg/mL] |
| --- | --- |
| N#C/C(=C\Nc1ccc2c(c1)OCCO2)C(=O)NCc1ccco1 | 4.6 (≈ 14.1 µM) |
| Cc1ccc(Cn2c(=O)c3c(ncn3C)n(C)c2=O)cc1 | > 42.6 |
| CCOC(=O)c1c(O)c(Cl)c(C)[nH]c1=O | > 34.7 |
| COC(=O)c1cc(CSC(=N)N)ccc1OCCC(C)C.Cl | > 52 |
| N#Cc1ccccc1NC(=S)Nc1ccc(F)cc1 | 35.1 (≈ 129 µM) |
| CNc1ccc(Oc2c(F)c(F)nc(F)c2F)cc1 | 6 (≈ 22 µM) |
| Cc1onc(-c2c(F)cccc2Cl)c1C(=O)N(C)C1CCCCC1 | > 52.6 |
| O=C(COC(=O)c1ccco1)NC1CCCC1 | 28.1 (≈ 118 µM) |
| COC(=O)c1cnn2c1C(=O)N(Cc1cccs1)CC2 | > 43.7 |
| N#C/C(=C\c1cccc(Oc2ccccc2)c1)C(=O)N1CCOCC1 | 42.5 (≈ 127 µM) |
| O=C(CCSCc1ccccc1Cl)NCc1cccs1 | 32.4 (≈ 99.4 µM) |
| CCN(CC)C(=O)CSc1nc(C)cc(C)c1C#N | 15.1 (≈ 54.4 µM) |
| O=C(Nc1ccc(N2CCCC2)cc1)c1cccc(Cl)c1 | < 0.3 |
| COc1ccccc1NC(=O)c1ccc(NC(=O)COC(=O)c2cncc(Br)c2)cc1 | 10 (≈ 20.6 µM) |
| O/C=c1\ccc2cccc3nc(C(F)(F)F)nc1c23 | 5.5 (≈ 20.8 µM) |
| COc1ccc(OC)c(C(C)NC(=S)NC2CCCCC2)c1 (stereo not given) | 28 (≈ 86.8 µM) |
| Cc1ccc(OCC(=O)Nc2cc(C(C)(C)C)on2)cc1C | 3.9 (≈ 12.9 µM) |
| CN1C(=O)c2cccc3c(S(=O)(=O)NCCc4ccccc4)ccc1c23 | < 0.4 |
| O=S(=O)(Nc1cccc(CCc2ccccn2)c1)c1ccc(Cl)cc1 | 19.1 (≈ 51.2 µM) |
| CCOc1ccc(CN2CCC(Cc3ccccc3)CC2)cc1 | 24.3 (≈ 78.5 µM) |
| CC(=O)Nc1cc2c3c(c1)CCC(=O)N3CCC2 | > 36.6 |
| COC(=O)c1c(C)[nH]c(C=Nc2ccc(OC)cc2)c1C | 30 (≈ 105 µM) |
| CC(=O)c1cnc(-c2cccc(Cl)c2)s1 | 1.3 (≈ 5.47 µM) |
| C=CCN1C(=O)C2(OCCO2)c2cc(C)ccc21 | > 36.8 |

| Structure (SMILES) | solubility kinetic [µg/mL] |
| --- | --- |
| C(=C\c1nc(-c2cccnc2)no1)/c1ccccc1 | 3.4 (≈ 13.6 µM) |
| CC1=C(C)CC(C(=O)NC(C)CCc2ccccc2)C(C(=O)O)C1 (stereo not given) | > 49.4 |
| O=C(COC(=O)/C=C/c1ccc(F)cc1)NC1CC1 | 28.8 (≈ 109 µM) |
| O=C(COc1cccnc1[N+](=O)[O-])NCc1ccccc1 | > 43.1 |
| CC(=O)NC(CC(=O)OCC(=O)c1cc(C)ccc1C)c1ccccc1 (stereo not given) | > 53 |
| COc1ccccc1C1Nc2ccccc2NC2=C1C(=O)CC(C)(C)C2 (stereo not given) | 51.6 (≈ 148 µM) |
| CC(=O)Nc1ccc(C2C(=O)c3ccccc3C2=O)cc1 | 39 (≈ 140 µM) |
| O=C(NC1CCC(O)CC1)c1cccc2cccnc12 (stereo not given) | > 40.5 |
| COc1ccccc1OCCNC(=O)CCNC(=O)c1ccccc1Cl | > 56.5 |
| COc1ccc(CN=C(C#N)C2=C(O)c3ccccc3C2=O)cc1 | 0.8 (≈ 2.51 µM) |
| COc1ccc(NC(=O)/C=C/C(=O)O)c([N+](=O)[O-])c1 | > 39.9 |
| COc1cc(Cl)c(C)cc1NC(=O)CN(C)C1CCS(=O)(=O)C1 (stereo not given) | > 54.1 |
| CC(C)(C)NC(=S)NC1CC1 | 25.8 (≈ 150 µM) |
| CC(=O)Nc1ccc(NC(=O)c2cc[n+]([O-])cc2)cc1 | > 40.7 |
| CCC1(CC)NC(=O)N(CC(=O)Nc2cccc3ccccc23)C1=O | > 50.9 |
| CC(C)(C)Nc1nc2ccc([N+](=O)[O-])cc2o1 | 31.9 (≈ 136 µM) |
| COc1cccc(OC)c1C(=O)Nc1cccc(-c2nc3ccccc3[nH]2)c1 | 11.1 (≈ 29.7 µM) |
| O=C(COc1cccnc1[N+](=O)[O-])Nc1cccc2ccccc12 | 22.7 (≈ 70.2 µM) |
| Cc1ccc(Nc2c(-c3ccc(C)o3)nc3ncccn23)cc1 | 1.9 (≈ 6.24 µM) |
| N/C(=N\OC(=O)CC1CCCCC1)c1cccc(Br)c1 | 0.6 (≈ 1.77 µM) |
| OCCNc1nc2ccccc2nc1NCCO | 35.2 (≈ 142 µM) |
| CC1(c2ccccc2)CC(C)(C)N2C(=O)Cc3cccc1c32 (stereo not given) | 6 (≈ 20.6 µM) |
| CC(C)Cn1c(SCC(=O)N2CCc3ccccc3C2)nc(O)cc1=O | > 56 |
| Cc1cc(=O)[nH]c(SCC(=O)N2C(C)CCCC2C)n1 (stereo not given) | 38.3 (≈ 130 µM) |

| Structure (SMILES) | solubility kinetic [µg/mL] |
| --- | --- |
| Cc1ccc(C(=O)O/N=C(\N)c2ccccn2)cc1 | 6.9 (≈ 27 µM) |
| CCc1ccccc1NC(=O)c1cc(C)no1 | > 34.5 |
| O=C(/C=C/c1ccc(Cl)cc1)Nc1nccs1 | 1.1 (≈ 4.16 µM) |
| CC(C)=CC1C(C(=O)NCCc2ccccc2)C1(C)C (stereo not given) | 27.6 (≈ 102 µM) |
| N#Cc1cnc(Nc2ccc(F)cc2)nc1N | 4.7 (≈ 20.5 µM) |
| COc1cccc(CNC(=O)CCCC(=O)NC(C)CCc2ccccc2)c1 (stereo not given) | > 57.4 |
| COc1ccccc1/C=C/C(=O)NCCc1ccccn1 | 41.9 (≈ 148 µM) |
| O=[N+]([O-])c1ccccc1CN1CCN(c2ncccn2)CC1 | 34.8 (≈ 116 µM) |
| CCN(CC)CCC(C)OC(=O)c1ccc(O)cc1O.Cl (stereo not given) | > 47.7 |
| CCc1cccc(C)c1NC(=O)c1ccc2c(c1)CCN2S(C)(=O)=O | 19.3 (≈ 53.8 µM) |
| CCc1ccccc1NC(=O)Nc1cnccn1 | 6.1 (≈ 25.2 µM) |
| O=C1N/C(=N/S(=O)(=O)Cc2ccccc2)S/C1=C/c1ccc2c(c1)OCO2 | 51 (≈ 127 µM) |
| O=c1c2ccccc2nc2n1CCO2 | > 28.2 |
| O=C(O)c1cc(-c2ccccc2)nc(-c2ccccc2)c1 | > 41.3 |
| O=S(=O)(c1ccccc1)N(CC(O)CN1CCCC1)c1ccccc1 (stereo not given) | 50 (≈ 139 µM) |
| CCCS(=O)(=O)NCCc1csc(-c2ccc(OC)c(OC)c2)n1 | 51.7 (≈ 140 µM) |
| Cc1cc(/C(N)=N/OC(=O)c2cccc(Cl)c2)no1 | 2.2 (≈ 7.87 µM) |
| O=C(CN1C(=O)CCSc2ccccc21)NC1CCCCC1 | 43.3 (≈ 136 µM) |
| Cc1cc2cc(C#N)c(N3CCOCC3)nc2cc1Cl | 0.5 (≈ 1.74 µM) |
| CC1CCCCC1NC1=NCCCS1 (stereo not given) | > 31.9 |
| COc1ccc(CNc2nc(Cl)c(C#N)s2)cc1 | 1.1 (≈ 3.93 µM) |
| O=C(CN1C(=O)/C(=C2/SC(=S)N(CCS(=O)(=O)O)C2=O)c2ccccc21)Nc1cccc(Br)c1 | 14.3 (≈ 24.6 µM) |
| CCOc1ccccc1C(=O)OCC(=O)Nc1cccc(S(=O)(=O)N2CCCC2)c1 | 19.2 (≈ 44.4 µM) |
| Fc1ccc(N2CN(Cc3cccnc3)CNC2=S)cc1 | > 45.4 |
